biological target: T1, human TLR3 (hTLR3) (Homo sapiens, UniProt O15455); assay: Antagonist screen, hTLR3-NFκB-293 cells, NF-κB-luciferase reporter, with EC50 of poly(I:C); assay type: cell-based; conditions: compound at 0.5, 5, 50 μg/ml; EC50 concentration of poly(I:C); 16 h; NF-κB-luciferase
T1 construct: expressed in transfected cells
T1 sequence (O15455 24-904): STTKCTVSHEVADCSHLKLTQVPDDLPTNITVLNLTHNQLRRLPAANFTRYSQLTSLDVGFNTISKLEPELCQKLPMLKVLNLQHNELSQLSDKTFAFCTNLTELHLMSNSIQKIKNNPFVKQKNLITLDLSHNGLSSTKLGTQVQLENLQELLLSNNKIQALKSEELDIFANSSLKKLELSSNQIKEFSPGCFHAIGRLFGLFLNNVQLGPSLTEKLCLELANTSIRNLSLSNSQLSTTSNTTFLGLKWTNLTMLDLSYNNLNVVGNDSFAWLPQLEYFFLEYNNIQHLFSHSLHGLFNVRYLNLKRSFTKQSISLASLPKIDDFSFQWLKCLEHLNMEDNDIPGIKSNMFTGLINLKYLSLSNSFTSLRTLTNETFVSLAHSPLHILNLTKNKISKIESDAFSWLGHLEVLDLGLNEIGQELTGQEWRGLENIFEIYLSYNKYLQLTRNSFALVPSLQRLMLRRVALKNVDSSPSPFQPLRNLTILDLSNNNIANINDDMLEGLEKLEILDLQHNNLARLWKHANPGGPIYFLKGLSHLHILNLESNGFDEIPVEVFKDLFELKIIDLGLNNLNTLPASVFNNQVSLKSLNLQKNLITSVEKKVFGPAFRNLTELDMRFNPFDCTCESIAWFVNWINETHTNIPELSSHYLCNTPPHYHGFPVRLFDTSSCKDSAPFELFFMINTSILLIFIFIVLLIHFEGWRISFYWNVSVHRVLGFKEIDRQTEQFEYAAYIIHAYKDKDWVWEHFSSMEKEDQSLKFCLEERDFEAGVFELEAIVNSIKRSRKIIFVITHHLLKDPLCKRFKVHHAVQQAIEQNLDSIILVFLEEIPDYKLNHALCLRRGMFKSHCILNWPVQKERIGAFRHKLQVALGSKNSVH
Method: The method is described in greater detail as follows. The cells for each individual cell clone (hTLR3-NFκB-293, hTLR7-NFκB-293, hTLR8-NFκB-293 and hTLR9-NFκB-293) were counted and seeded one day before the stimulation at 1.5×10^4 cells per well in 96-well cell culture plates. To become adherent the cells were incubated after seeding overnight at 37° C. in 5% CO2 humidified air.
The screen for each compound was performed at the same time for all of the receptors TLR3, TLR7, TLR8 and TLR9. Up to fifteen test compounds, each assayed in duplicate at each of three different final concentrations (0.5 μg/ml, 5 μg/ml, and 50 μg/ml), were used for 16 h cell stimulation on a single multiwell culture plate. A 4× final concentration master plate was created to prepare the different test compounds before they were added to the cells.
Controls were added as duplicates individually for each cell clone on the cell culture plate. Positive controls were used as follows (final concentrations): 50 μg/ml poly(I:C) for hTLR3-NFκB-293; 8 μM resiquimod (R848) for hTLR7-NFκB-293; 30 μM R848 for hTLR8-NFκB-293; and 2.5 μM CpG-ODN 2006 for hTLR9-NFκB-293. Media alone was used as negative control. After addition of controls and small molecules, the cell clones were additionally stimulated with the EC50 concentration of the appropriate receptor-specific ligand.
The mean value of wells H2 and H5 (each with cells and EC50 concentration of the appropriate receptor-specific ligand) divided by the mean of wells H3 and H6 (each with cells alone) yielded the baseline response (i.e., fold induction of luciferase activity) to EC50 concentration of the appropriate receptor-specific ligand.
After 16 h stimulation the supernatant was removed and the cells treated with lysis buffer and stored at −80° C. before measuring.
For each screen result a graphical documentation was performed.
The baseline result (measured with addition of the EC50 concentration of the receptor-specific ligand) for each cell culture plate was measured as described above. Antagonistic effects were measured by down regulation compared to the baseline. Antagonists were scored as follows: • 13: compounds for which there was clear down regulation at 0.5 μg/ml, 5 μg/ml, and 50 μg/ml; • 12: compounds for which there was clear down regulation at 5 μg/ml and 50 μg/ml; • 11: compounds for which there was clear down regulation only at 50 μg/ml; • —: compounds for which there was no clear down regulation even at 50 μg/ml. Agonists
Results were expressed as fold induction over baseline luciferase activity measured in the absence of poly(I:C). […] Additional screening was performed in like manner using additional small molecules selected from another library or specifically prepared for this purpose. Scoring is reported as above but as applied to TLR3.

Compound | hTLR3 (inhibitory effect, antagonist score)
Cc1cccc(CN2CCN(C(c3ccccc3)c3ccc(Cl)cc3)CC2)c1.Cl.Cl (stereo not drawn) [compound 457, Meclozinedihydrochioride] | — (compounds for which there was no clear down regulation even at 50 μg/ml)
Cc1cccc(C2(c3cccc(C)c3)OC(=O)c3ccccc32)c1 [compound 1308] | 12 (compounds for which there was clear down regulation at 5 μg/ml and 50 μg/ml)
Cl.Cl.OCCN1CCN(CC/C=C2/c3ccccc3Sc3ccc(C(F)(F)F)cc32)CC1 [compound 340, Flupentixoldihydrochloride cis-(Z)] | 11 (compounds for which there was clear down regulation only at 50 μg/ml)
CC1NCCc2c1[nH]c1ccccc21.Cl (racemic) [compound 619, Eleagnine hydrochloride (R,S)] | — (compounds for which there was no clear down regulation even at 50 μg/ml)
O=C1c2c(O)cccc2Cc2cccc(O)c21 [compound 43, Anthralin] | — (compounds for which there was no clear down regulation even at 50 μg/ml)
Cl.Cl.c1ccc2c3c([nH]c2c1)C1C2CCC(C4CCCNC42)N1CC3 (stereo not drawn) [compound 685, Nitrarine dihydorchloride] | — (compounds for which there was no clear down regulation even at 50 μg/ml)
Maprotilinehydrochloride [compound 346] | 11 (compounds for which there was clear down regulation only at 50 μg/ml)
CN(CCO)C(=O)c1cccc2c1-c1ccccc1C2=O [compound 890] | — (compounds for which there was no clear down regulation even at 50 μg/ml)
CN1CCCCC1CCN1c2ccccc2Sc2ccc([S+](C)[O-])cc21.O=S(=O)(O)c1ccccc1 (stereo not drawn) [compound 529, Mesoridazine besylate] | — (compounds for which there was no clear down regulation even at 50 μg/ml)
CC[C@]12CCCN3CCc4c(n(c5ccccc45)[C@](O)(C(=O)OC)C1)[C@@H]32 [compound 636, Epivincamine] | 11 (compounds for which there was clear down regulation only at 50 μg/ml)
NC(=O)c1cc(N)c2c(c1N)C(=O)c1ccccc1C2=O [compound 1158] | — (compounds for which there was no clear down regulation even at 50 μg/ml)
CN1CCC(=C2c3ccccc3Sc3ccccc32)CC1.O=C(O)/C=C\C(=O)O [compound 294, Pimethixene maleate] | 11 (compounds for which there was clear down regulation only at 50 μg/ml)
OCCN1CCN(CCCN2c3ccccc3Sc3ccc(Cl)cc32)CC1 [compound 125, Perphenazine] | — (compounds for which there was no clear down regulation even at 50 μg/ml)
CN1CCN(CCCN2c3ccccc3Sc3ccc(S(=O)(=O)N(C)C)cc32)CC1.CS(=O)(=O)O.CS(=O)(=O)O [compound 149, Thioproperasinedimesylate] | — (compounds for which there was no clear down regulation even at 50 μg/ml)
CC(NCCC(c1ccccc1)c1ccccc1)c1ccccc1.Cl (stereo not drawn) [compound 270, Fendiline hydrochloride] | 11 (compounds for which there was clear down regulation only at 50 μg/ml)

Source: US7410975B2, “Small molecule toll-like receptor (TLR) antagonists” (Coley Pharmaceutical Group, Inc., priority 2003, dated 2008)
